The text below walks through data of US11420935B2, “Bicyclic compounds” (Vivace Therapeutics, Inc., priority 2019, dated 2022).

Where only a bound is given, the exact number is not on record here.

The term IC50 denotes the concentration needed to halve the response being measured.

The test system of one assay is 8×TBD luciferase reporter (YAP) in HEK293T cells. As to the kind of experiment: YAP Reporter Assay (8×TBD firefly luciferase reporter). The format is cell-based. To be noted: Homo sapiens, HEK-293T, 24 h, read-out: Firefly Luciferase IC50 (μM). As to the method: HEK293T cells stably transfected with 8×TBD luciferase reporter and pRLTK in 384-well plates were treated with the test compounds, starting from 3 μM (final concentration in assay plate), 1:3 dilution, and 10 points in quadruplicates. Post 24-hr incubation with compounds at 37° C. and 5% CO2, cells were lysed and 8×TBD-driven firefly luciferase and control TK-driven renilla luciferase activities were measured using Promega Dual-Luciferase Reporter Assay System.
Reagents: The reagents used for this study are: DMEM: Invitrogen #11960077, Dual-Glo Luciferase Assay System: Promega-E2980, Puromycin Dihydrochloride: Invitrogen-A1113803, 384-well plate: PerkinElmer-6007480, L-GLUTAMINE: Invitrogen-25030164, Hygromycin B: Invitrogen-10687010, and Penicillin-Streptomycin: Merk-TMS-AB2-C
Media: The media used for this assay were: Culture Medium: DMEM+1 ug/mL puromycin+200 ug/mL hygromycin (with 10% FBS+1 mM L-glutamine); and Assay Medium: DMEM (with 10% FBS+1 mM L-glutamine+1×P/S).
Cell Plating: The appropriate media was warmed at 37° C. by water bath: Culture Medium, Assay Medium, 1*D-PBS, 0.05% trypsin-EDTA. The cells were trypsinized after removing all media, then washed with 1*sterile D-PBS and then with 2 ml 0.05% trypsin-EDTA. The cells were then incubated at RT for one minute. Then 10 ml/75 cm2 flask Assay Medium was added to each flask. Using a 10 ml pipette, the cells were then gently resuspended in the media, until the clumps completely disappeared. The cells were then transferred into 50 ml centrifuge tubes and were centrifuged at 800 rpm for 5 mins. The medium was removed and the cells were resuspended with Assay Medium. An aliquot of cells was used to count the cell density (cells/ml). The cell suspension was then diluted with Assay Medium to a concentration of 6×10^4 cells/ml. 50 ul cells suspension was then plated to 384-well plate (PerkinElmer-6007480), 3×10^3 cells/well and the cells were incubated in an incubator at 37° C., 5% CO2.
Compound Treatment: In the afternoon (incubation of the plate with 3-4 hrs), the test compounds were added by Echo, starting from 3 uM (final concentration in the assay plate), 1:3 dilution, 10 points, quadruplicates. The plate was placed at 37° C., 5% CO2 incubator for 24 hrs.
Detection: The Dual-Glo Luciferase Reagent was prepared by transferring the contents of one bottle of Dual-Glo Luciferase Buffer to one bottle of Dual-Glo Luciferase Substrate to create the Dual-Glo Luciferase Reagent. Mixing was performed by inversion until the substrate was thoroughly dissolved. After mixing, the reagent was aliquoted into 15 ml tubes. In the afternoon (24 hrs post compound treatment), the DMEM+medium in the 384 well plates were aspirated by Microplate Washer.
Measuring firefly luciferase activity: 20 ul Dual-Glo Luciferase Reagent was added to the 384-well plates. The plates were protected from light to prevent interference with the assay. The plates were shaken for 1 min followed centrifuging plates at 1000 rpm for 30 seconds. After waiting at least 10 minutes, the firefly luminescence was measured by Envision.
Measuring renilla luciferase activity: 20 ul Stop-Glo Reagent was added to the 384-well plates. The plates were shaken for 1 min and then centrifuged at 1000 rpm for 30 seconds. After waiting at least 10 minutes, the renilla luminescence was measured by Envision.
Compound IC50 and maximum inhibition on the firefly luciferase and renilla luciferase activities were reported separately.
On to `CC(C)NC(=O)c1ccc2c(Oc3ccc(Cl)cc3)cccc2c1` [Compound 1, 5-(4-chlorophenoxy)-N-isopropyl-2-naphthamide], for which the concentration for half-maximal inhibition (IC50) was under 0.1 µM.
On the same count and under the same terms, as for `CC(C)NC(=O)c1ccc2c(Oc3cccc(Cl)c3)cccc2c1` [Compound 2, 5-(3-chlorophenoxy)-N-isopropyl-2-naphthamide], the figure is under 0.1 µM; as for `CC(C)NC(=O)c1ccc2c(Oc3ccc(Cl)c(Cl)c3)cccc2c1` [Compound 3, 5-(3,4-dichlorophenoxy)-N-isopropyl-naphthalene-2-carboxamide], under 0.1 µM; as for `CC(C)NC(=O)c1cnc2c(Oc3ccc(C(F)(F)F)cc3)cccc2c1` [Compound 13, N-isopropyl-8-[4-(trifluoromethyl)phenoxy]quinoline-3-carboxamide], under 0.1 µM.
Still for that read-out and setting: as for `N#CCNC(=O)c1ccc2c(Oc3ccc(C(F)(F)F)cc3)cccc2c1` [Compound 22, N-(cyanomethyl)-5-(4-(trifluoromethyl)phenoxy)-2-naphthamid], the figure is under 0.1 µM; as for `N#CCCNC(=O)c1ccc2c(Oc3ccc(C(F)(F)F)cc3)cccc2c1` [Compound 23, N-(2-cyanoethyl)-5-(4-(trifluoromethyl)phenoxy)-2-naphthamide], under 0.1 µM.

Still in this assay, the particulars now being: Homo sapiens, HEK-293T; HEK293T cells stably transfected with 8×TBD luciferase reporter and pRLTK; 24-hr incubation; firefly luciferase activity; read-out: Firefly Luciferase IC50.
Regarding `CC(C)NC(=O)c1ccc2c(Oc3ccc(C(F)(F)F)cc3)cccc2c1` [Compound 4, N-isopropyl-5-(4-(trifluoromethyl)phenoxy)-2-naphthamide], the IC50 is under 0.1 µM.
Regarding `CS(=O)(=O)NC(=O)c1ccc2c(Oc3ccc(C(F)(F)F)cc3)cccc2c1` [Compound 5, N-(methylsulfonyl)-5-(4-(trifluoromethyl)phenoxy)-2-naphthamide], the IC50 is under 0.1 µM.
For `CS(=O)(=O)NC(=O)c1ccc2c(Oc3ccc(Cl)c(Cl)c3)cccc2c1` [Compound 6, 5-(3,4-dichlorophenoxy)-N-(methylsulfonyl)-2-naphthamide], the IC50 was under 0.1 µM.
In the case of `CNS(=O)(=O)c1ccc2c(Oc3ccc(C(F)(F)F)cc3)cccc2c1` [Compound 7, N-methyl-5-(4-(trifluoromethyl)phenoxy)naphthalene-2-sulfonamide], the IC50 is under 0.1 µM.
Still for that read-out and setting: the result for `CC(C)NC(=O)c1ccc2c(Oc3ccc(F)c(F)c3)cccc2c1` [Compound 8, 5-(3,4-difluorophenoxy)-N-isopropyl-2-naphthamide] reads under 0.1 µM; that for `CNS(=O)(=O)c1ccc2c(Oc3ccc(Cl)c(Cl)c3)cccc2c1` [Compound 9, 5-(3,4-dichlorophenoxy)-N-methylnaphthalene-2-sulfonamide], under 0.1 µM; that for `CS(=O)(=O)NC(=O)c1ccc2c(Oc3ccc(F)c(F)c3)cccc2c1` [Compound 10, 5-(3,4-difluorophenoxy)-N-(methylsulfonyl)-2-naphthamide], under 0.1 µM.
On the same count and under the same terms, as for `CC(C)NC(=O)c1ccc2c(Oc3ccc(C(F)(F)F)cc3)nccc2c1` [Compound 11, N-isopropyl-1-[4-(trifluoromethyl)phenoxy]isoquinoline-6-carboxamide], the figure is under 0.1 µM.
Same read-out and setting: as for `C[C@H](CO)NC(=O)c1ccc2c(Oc3ccc(C(F)(F)F)cc3)nccc2c1` [Compound 12, N-[(1R)-2-hydroxy-1-methyl-ethyl]-1-[4-(trifluoromethyl)phenoxy]isoquinoline-6-carboxamide], the figure is under 0.1 µM.
On to `O=C(NC(CO)c1ccccn1)c1cnc2c(Oc3ccc(C(F)(F)F)cc3)cccc2c1` (centres unmarked) [Compound 14, N-[2-hydroxy-1-(2-pyridyl)ethyl]-8-[4-(trifluoromethyl)phenoxy]quinoline-3-carboxamide], for which the half-inhibitory concentration (IC50) was under 0.1 µM.
On the same count and under the same terms, the result for `C[C@H](CO)NC(=O)c1cnc2c(Oc3ccc(C(F)(F)F)cc3)cccc2c1` [Compound 15, N-[(1R)-2-hydroxy-1-methyl-ethyl]-8-[4-(trifluoromethyl)phenoxy]quinoline-3-carboxamide] reads under 0.1 µM; that for `COC[C@@H](C)NC(=O)c1cnc2c(Oc3ccc(C(F)(F)F)cc3)cccc2c1` [Compound 16, N-[(1R)-2-methoxy-1-methyl-ethyl]-8-[4-(trifluoromethyl)phenoxy]quinoline-3-carboxamide], 0.1 to 1 µM.
With `C[C@@H](NC(=O)c1cnc2c(Oc3ccc(C(F)(F)F)cc3)cccc2c1)c1ccccn1` [Compound 17, N-[(1R)-1-(2-pyridyl)ethyl]-8-[4-(trifluoromethyl)phenoxy]quinoline-3-carboxamide], the half-inhibitory concentration (IC50) lay within 0.1 to 1 µM.
Still for that read-out and setting: as for `COC[C@H](C)NC(=O)c1cnc2c(Oc3ccc(C(F)(F)F)cc3)cccc2c1` [Compound 18, N-[(1S)-2-methoxy-1-methyl-ethyl]-8-[4-(trifluoromethyl)phenoxy]quinoline-3-carboxamide], the figure is under 0.1 µM; as for `C[C@H](NC(=O)c1cnc2c(Oc3ccc(C(F)(F)F)cc3)cccc2c1)c1ccccn1` [Compound 19, N-[(1S)-1-(2-pyridyl)ethyl]-8-[4-(trifluoromethyl)phenoxy]quinoline-3-carboxamide], under 0.1 µM; as for `C#CCNC(=O)c1ccc2c(Oc3ccc(C(F)(F)F)cc3)cccc2c1` [Compound 20, N-(prop-2-yn-1-yl)-5-(4-(trifluoromethyl)phenoxy)-2-naphthamide], under 0.1 µM.
Regarding `C#CCCNC(=O)c1ccc2c(Oc3ccc(C(F)(F)F)cc3)cccc2c1` [Compound 21, N-(but-3-yn-1-yl)-5-(4-(trifluoromethyl)phenoxy)-2-naphthamide], the IC50 is under 0.1 µM.
On the same count and under the same terms, the result for `C[C@H](CO)NC(=O)c1ccc2c(Oc3ccc(C(F)(F)F)cc3)cccc2c1` [Compound 24, (R)—N-(1-hydroxypropan-2-yl)-5-(4-(trifluoromethyl)phenoxy)-2-naphthamide] reads under 0.1 µM; that for `O=C(NC(CO)c1ccccn1)c1ccc2c(Oc3ccc(C(F)(F)F)cc3)cccc2c1` (centres unmarked) [Compound 25, N-(2-hydroxy-1-(pyridin-2-yl)ethyl)-5-(4-(trifluoromethyl)phenoxy)-2-naphthamide], under 0.1 µM.
On the same count and under the same terms, as for `COC[C@@H](C)NC(=O)c1ccc2c(Oc3ccc(C(F)(F)F)cc3)cccc2c1` [Compound 26, (R)—N-(1-methoxypropan-2-yl)-5-(4-(trifluoromethyl)phenoxy)-2-naphthamide], the figure is under 0.1 µM; as for `C[C@@H](NC(=O)c1ccc2c(Oc3ccc(C(F)(F)F)cc3)cccc2c1)c1ccccn1` [Compound 27, N-[(1R)-1-(2-pyridyl)ethyl]-5-[4-(trifluoromethyl)phenoxy]naphthalene-2-carboxamide], 0.1 to 1 µM.
The same measure, in the same setting: as for `COC[C@H](C)NC(=O)c1ccc2c(Oc3ccc(C(F)(F)F)cc3)cccc2c1` [Compound 28, (S)—N-(1-methoxypropan-2-yl)-5-(4-(trifluoromethyl)phenoxy)-2-naphthamide], the figure is under 0.1 µM; as for `C[C@H](NC(=O)c1ccc2c(Oc3ccc(C(F)(F)F)cc3)cccc2c1)c1ccccn1` [Compound 29, (S)—N-(1-(pyridin-2-yl)ethyl)-5-(4-(trifluoromethyl)phenoxy)-2-naphthamide], under 0.1 µM; as for `CNCCNC(=O)c1ccc2c(Oc3ccc(C(F)(F)F)cc3)cccc2c1` [Compound 30, N-(2-(methylamino)ethyl)-5-(4-(trifluoromethyl)phenoxy)-2-naphthamide], 0.1 to 1 µM.
For `CN(C#N)CCNC(=O)c1ccc2c(Oc3ccc(C(F)(F)F)cc3)cccc2c1` [Compound 31, N-(2-(N-methylcyanamido)ethyl)-5-(4-(trifluoromethyl)phenoxy)-2-naphthamide], the 50% inhibitory concentration (IC50) was under 0.1 µM.
On the same count and under the same terms, as for `CC(C)NC(=O)c1cc2cccc(Oc3ccc(C(F)(F)F)cc3)c2s1` [Compound 32, N-isopropyl-7-(4-(trifluoromethyl)phenoxy)benzo[b]thiophene-2-carboxamide], the figure is under 0.1 µM.
